Legend:
Experiment in all cases: radiometric filter-binding kinase assay, Kinase HotSpot
Settings in all cases: compound 0.5 µM; ATP 10 µM
CSF1R (human) = CSF1R (human) (UniProt P07333)
SIK2 (human) = SIK2 (human) (UniProt Q9H0K1)
MST1R (human) = MST1R (human) (UniProt Q04912)
STK3 (human) = STK3 (human) (UniProt Q13188)
RPS6KA1 KD1 KD2 (human) = RPS6KA1 KD1 KD2 (human) (UniProt Q15418)
BRSK1 (human) = BRSK1 (human) (UniProt Q8TDC3)
PRKG2 (human) = PRKG2 (human) (UniProt Q13237)
MINK1 (human) = MINK1 (human) (UniProt Q8N4C8)
TYRO3 (human) = TYRO3 (human) (UniProt Q06418)
CAMK2B (human) = CAMK2B (human) (UniProt Q13554)
MAP2K2 (human) = MAP2K2 (human) (UniProt P36507)
PIM3 (human) = PIM3 (human) (UniProt Q86V86)
NEK1 (human) = NEK1 (human) (UniProt Q96PY6)
CDK6 CCND3 (human) = CDK6 CCND3 (human) (UniProt P30281+Q00534)
IKBKB (human) = IKBKB (human) (UniProt O14920)
Chain of IKBKB (human) (O14920 whole entry, looked up): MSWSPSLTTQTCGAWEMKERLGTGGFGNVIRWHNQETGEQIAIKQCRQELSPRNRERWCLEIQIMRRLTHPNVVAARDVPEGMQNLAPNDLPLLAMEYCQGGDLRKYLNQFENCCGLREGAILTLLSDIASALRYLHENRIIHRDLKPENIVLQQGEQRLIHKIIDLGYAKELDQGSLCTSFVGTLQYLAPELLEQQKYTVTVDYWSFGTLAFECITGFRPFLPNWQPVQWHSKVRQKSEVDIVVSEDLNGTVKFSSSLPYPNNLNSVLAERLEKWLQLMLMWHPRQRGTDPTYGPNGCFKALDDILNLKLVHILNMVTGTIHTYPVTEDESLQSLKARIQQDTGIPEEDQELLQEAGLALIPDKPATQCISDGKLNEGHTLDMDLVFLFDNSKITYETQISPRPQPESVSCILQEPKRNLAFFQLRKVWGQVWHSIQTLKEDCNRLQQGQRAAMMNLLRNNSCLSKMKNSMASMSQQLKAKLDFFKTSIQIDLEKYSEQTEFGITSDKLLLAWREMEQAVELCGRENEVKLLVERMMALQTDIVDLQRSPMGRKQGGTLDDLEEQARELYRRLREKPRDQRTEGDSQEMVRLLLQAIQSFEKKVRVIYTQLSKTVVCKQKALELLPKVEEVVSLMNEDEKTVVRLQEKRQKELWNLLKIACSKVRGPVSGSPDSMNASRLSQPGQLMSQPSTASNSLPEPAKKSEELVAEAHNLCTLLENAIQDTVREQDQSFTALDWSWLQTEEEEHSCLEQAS

TSSK1B (human) = TSSK1B (human) (UniProt Q9BXA7)
RPS6KA2 KD1 KD2 (human) = RPS6KA2 KD1 KD2 (human) (UniProt Q15349)
EGFR (human) = EGFR (human) (UniProt P00533)
MAPK10 (human) = MAPK10 (human) (UniProt P53779)
Chain of MAPK10 (human) (P53779 whole entry, looked up): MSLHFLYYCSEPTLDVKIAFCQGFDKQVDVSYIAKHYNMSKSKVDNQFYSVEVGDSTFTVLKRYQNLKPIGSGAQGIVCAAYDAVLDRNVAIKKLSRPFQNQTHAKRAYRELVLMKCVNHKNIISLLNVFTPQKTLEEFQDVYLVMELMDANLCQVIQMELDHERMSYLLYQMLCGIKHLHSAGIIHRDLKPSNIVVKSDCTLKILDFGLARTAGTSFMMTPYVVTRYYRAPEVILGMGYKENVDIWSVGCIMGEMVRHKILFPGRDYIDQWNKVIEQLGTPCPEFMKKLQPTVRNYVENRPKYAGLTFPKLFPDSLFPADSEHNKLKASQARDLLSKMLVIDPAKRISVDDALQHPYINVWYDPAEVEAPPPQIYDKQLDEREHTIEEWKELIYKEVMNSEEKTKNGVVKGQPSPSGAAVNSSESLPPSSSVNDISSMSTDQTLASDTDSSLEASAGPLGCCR

MAP4K5 (human) = MAP4K5 (human) (UniProt Q9Y4K4)
Chain of MAP4K5 (human) (Q9Y4K4 whole entry, looked up): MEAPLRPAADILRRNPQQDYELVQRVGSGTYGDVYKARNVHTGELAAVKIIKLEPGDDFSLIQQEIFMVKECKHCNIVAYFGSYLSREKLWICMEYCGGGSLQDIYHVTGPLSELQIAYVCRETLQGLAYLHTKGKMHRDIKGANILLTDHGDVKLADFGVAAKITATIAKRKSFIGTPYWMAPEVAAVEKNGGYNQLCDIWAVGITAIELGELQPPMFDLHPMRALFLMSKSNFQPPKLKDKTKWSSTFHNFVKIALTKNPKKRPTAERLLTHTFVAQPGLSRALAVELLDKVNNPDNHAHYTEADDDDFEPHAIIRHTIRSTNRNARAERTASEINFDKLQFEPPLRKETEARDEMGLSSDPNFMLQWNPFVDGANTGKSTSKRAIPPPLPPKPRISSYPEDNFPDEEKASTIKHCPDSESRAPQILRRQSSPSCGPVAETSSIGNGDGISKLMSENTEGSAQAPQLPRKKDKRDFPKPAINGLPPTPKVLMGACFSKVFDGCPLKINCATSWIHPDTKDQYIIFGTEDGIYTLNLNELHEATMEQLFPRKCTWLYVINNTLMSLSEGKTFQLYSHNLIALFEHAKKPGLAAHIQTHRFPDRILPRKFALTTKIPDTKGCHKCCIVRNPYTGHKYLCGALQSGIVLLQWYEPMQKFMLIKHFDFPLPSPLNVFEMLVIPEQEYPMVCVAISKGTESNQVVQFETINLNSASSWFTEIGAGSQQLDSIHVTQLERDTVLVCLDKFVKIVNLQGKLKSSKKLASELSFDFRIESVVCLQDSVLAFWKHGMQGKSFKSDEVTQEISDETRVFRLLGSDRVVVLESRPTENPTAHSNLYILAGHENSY

PRKCA (human) = PRKCA (human) (UniProt P17252)
ULK2 (human) = ULK2 (human) (UniProt Q8IYT8)
MAP3K10 (human) = MAP3K10 (human) (UniProt Q02779)
EPHA5 (human) = EPHA5 (human) (UniProt P54756)
MATK (human) = MATK (human) (UniProt P42679)
RET (human) = RET (human) (UniProt P07949)
[1] = target: JAK1 JH1 catalytic (human) (UniProt P23458)
CDK3 CCNE1 (human) = CDK3 CCNE1 (human) (UniProt Q00526+P24864)
CAMK4 (human) = CAMK4 (human) (UniProt Q16566)
PIM2 (human) = PIM2 (human) (UniProt Q9P1W9)
TEK (human) = TEK (human) (UniProt Q02763)
PRKCI (human) = PRKCI (human) (UniProt P41743)
Chain of PRKCI (human) (P41743 whole entry, looked up): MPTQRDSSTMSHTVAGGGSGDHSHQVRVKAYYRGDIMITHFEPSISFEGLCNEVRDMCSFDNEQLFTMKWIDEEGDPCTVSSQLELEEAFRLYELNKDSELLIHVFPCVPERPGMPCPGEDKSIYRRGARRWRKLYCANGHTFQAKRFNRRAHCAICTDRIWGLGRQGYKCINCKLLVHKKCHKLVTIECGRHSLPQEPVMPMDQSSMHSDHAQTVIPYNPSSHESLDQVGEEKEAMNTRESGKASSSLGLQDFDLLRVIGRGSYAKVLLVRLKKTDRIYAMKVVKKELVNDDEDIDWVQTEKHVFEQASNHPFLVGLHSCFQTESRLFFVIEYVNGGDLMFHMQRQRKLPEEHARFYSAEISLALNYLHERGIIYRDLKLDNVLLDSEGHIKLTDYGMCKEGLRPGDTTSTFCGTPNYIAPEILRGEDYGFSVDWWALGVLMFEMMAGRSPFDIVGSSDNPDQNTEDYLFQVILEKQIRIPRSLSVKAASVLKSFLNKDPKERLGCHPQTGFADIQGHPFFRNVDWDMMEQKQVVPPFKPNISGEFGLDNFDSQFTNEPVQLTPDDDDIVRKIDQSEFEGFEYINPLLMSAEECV

SGK3 (human) = SGK3 (human) (UniProt Q96BR1)
MAP4K4 (human) = MAP4K4 (human) (UniProt O95819)
MUSK (human) = MUSK (human) (UniProt O15146)
FES (human) = FES (human) (UniProt P07332)
Chain of FES (human) (P07332 whole entry, looked up): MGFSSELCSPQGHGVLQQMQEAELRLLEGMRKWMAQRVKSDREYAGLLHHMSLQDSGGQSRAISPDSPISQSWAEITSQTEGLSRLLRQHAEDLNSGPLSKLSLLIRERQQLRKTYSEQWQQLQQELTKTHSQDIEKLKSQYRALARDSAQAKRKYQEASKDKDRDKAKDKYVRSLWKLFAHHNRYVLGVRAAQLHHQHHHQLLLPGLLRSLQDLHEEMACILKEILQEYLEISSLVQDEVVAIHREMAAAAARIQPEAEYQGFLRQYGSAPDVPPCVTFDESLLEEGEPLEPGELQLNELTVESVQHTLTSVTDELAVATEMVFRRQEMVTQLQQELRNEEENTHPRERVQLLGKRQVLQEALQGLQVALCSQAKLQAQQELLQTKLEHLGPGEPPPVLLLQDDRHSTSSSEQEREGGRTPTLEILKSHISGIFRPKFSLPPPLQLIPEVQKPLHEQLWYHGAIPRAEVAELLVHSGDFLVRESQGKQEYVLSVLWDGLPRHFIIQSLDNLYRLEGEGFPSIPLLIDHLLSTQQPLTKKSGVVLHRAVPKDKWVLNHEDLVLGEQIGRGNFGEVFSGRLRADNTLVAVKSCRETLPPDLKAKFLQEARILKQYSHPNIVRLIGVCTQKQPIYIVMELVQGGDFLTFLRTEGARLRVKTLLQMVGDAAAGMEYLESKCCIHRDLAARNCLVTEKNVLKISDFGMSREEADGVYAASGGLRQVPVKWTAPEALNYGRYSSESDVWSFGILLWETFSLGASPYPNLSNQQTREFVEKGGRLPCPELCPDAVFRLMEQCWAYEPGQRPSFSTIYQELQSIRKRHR

RIPK2 (human) = RIPK2 (human) (UniProt O43353)
GSK3A (human) = GSK3A (human) (UniProt P49840)
OXSR1 (human) = OXSR1 (human) (UniProt O95747)
Chain of OXSR1 (human) (O95747 whole entry, looked up): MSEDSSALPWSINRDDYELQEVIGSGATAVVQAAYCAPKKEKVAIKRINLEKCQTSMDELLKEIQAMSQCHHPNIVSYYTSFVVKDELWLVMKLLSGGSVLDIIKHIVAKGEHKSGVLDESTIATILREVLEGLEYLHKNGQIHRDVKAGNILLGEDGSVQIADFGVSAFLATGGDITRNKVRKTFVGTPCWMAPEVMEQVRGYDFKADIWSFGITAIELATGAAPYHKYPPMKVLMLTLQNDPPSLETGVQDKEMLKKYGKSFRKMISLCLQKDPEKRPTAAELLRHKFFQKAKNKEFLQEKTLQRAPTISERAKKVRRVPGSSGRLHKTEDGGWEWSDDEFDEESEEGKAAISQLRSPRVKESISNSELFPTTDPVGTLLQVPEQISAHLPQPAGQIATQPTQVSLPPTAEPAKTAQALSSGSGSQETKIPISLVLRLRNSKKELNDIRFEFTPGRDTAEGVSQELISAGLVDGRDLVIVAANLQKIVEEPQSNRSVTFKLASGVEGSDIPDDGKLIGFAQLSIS

ITK (human) = ITK (human) (UniProt Q08881)
MAPKAPK2 (human) = MAPKAPK2 (human) (UniProt P49137)
PASK (human) = PASK (human) (UniProt Q96RG2)

Chain of RPS6KA1 KD1 KD2 (human) (Q15418 whole entry, looked up): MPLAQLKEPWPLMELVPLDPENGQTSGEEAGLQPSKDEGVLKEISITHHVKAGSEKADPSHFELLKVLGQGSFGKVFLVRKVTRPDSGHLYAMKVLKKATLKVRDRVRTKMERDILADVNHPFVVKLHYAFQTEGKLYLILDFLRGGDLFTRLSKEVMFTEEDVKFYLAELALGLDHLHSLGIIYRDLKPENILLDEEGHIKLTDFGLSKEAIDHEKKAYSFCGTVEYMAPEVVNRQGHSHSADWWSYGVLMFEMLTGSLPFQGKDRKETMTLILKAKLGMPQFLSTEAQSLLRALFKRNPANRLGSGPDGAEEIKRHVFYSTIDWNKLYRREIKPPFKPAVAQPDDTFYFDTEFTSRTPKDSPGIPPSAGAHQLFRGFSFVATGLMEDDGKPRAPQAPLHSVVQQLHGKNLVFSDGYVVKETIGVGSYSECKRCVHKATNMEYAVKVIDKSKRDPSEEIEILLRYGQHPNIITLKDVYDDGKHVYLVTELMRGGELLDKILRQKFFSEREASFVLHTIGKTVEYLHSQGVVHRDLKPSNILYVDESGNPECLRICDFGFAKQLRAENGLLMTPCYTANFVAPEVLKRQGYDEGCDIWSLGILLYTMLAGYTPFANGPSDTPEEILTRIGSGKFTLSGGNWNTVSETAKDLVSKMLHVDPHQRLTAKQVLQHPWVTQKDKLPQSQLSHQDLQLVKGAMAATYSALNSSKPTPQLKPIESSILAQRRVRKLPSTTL

SMILES: CCN(CC)C(=O)c1ccc(Nc2nc(OCC3CCCCC3)c3nc[nH]c3n2)cc1
- residual activity (CSF1R (human)): 5.73%
- residual activity (SIK2 (human)): 75.3%
- residual activity (MST1R (human)): 103%
- residual activity (STK3 (human)): 62.1%
- residual activity (RPS6KA1 KD1 KD2 (human)): 57.1%
- residual activity (BRSK1 (human)): 84%
- residual activity (PRKG2 (human)): 80%
- residual activity (MINK1 (human)): 88.5%
- residual activity (TYRO3 (human)): 90.4%
- residual activity (CAMK2B (human)): 97.6%
- residual activity (MAP2K2 (human)): 94%
- residual activity (PIM3 (human)): 109%
- residual activity (NEK1 (human)): 53.1%
- residual activity (CDK6 CCND3 (human)): 47.2%
- residual activity (IKBKB (human)): 97.3%
- residual activity (TSSK1B (human)): 15.3%
- residual activity (RPS6KA2 KD1 KD2 (human)): 30.9%
- residual activity (EGFR (human)): 88.5%
- residual activity (MAPK10 (human)): 108%
- residual activity (MAP4K5 (human)): 78%
- residual activity (PRKCA (human)): 82.5%
- residual activity (ULK2 (human)): 84.9%
- residual activity (MAP3K10 (human)): 15.2%
- residual activity (EPHA5 (human)): 95%
- residual activity (MATK (human)): 95.6%
- residual activity (RET (human)): 7.65%
- residual activity [1]: 51.8%
- residual activity (CDK3 CCNE1 (human)): 90.4%
- residual activity (CAMK4 (human)): 97.7%
- residual activity (PIM2 (human)): 105%
- residual activity (TEK (human)): 95.4%
- residual activity (PRKCI (human)): 97.2%
- residual activity (SGK3 (human)): 97.2%
- residual activity (MAP4K4 (human)): 85.9%
- residual activity (MUSK (human)): 77.5%
- residual activity (FES (human)): 63.2%
- residual activity (RIPK2 (human)): 97.2%
- residual activity (GSK3A (human)): 80.3%
- residual activity (OXSR1 (human)): 99%
- residual activity (ITK (human)): 57.3%
- residual activity (MAPKAPK2 (human)): 99.2%
- residual activity (PASK (human)): 103%

SMILES: COc1ccc2c(c[n+](C)c3c4cc5c(cc4ccc23)OCO5)c1OC
- residual activity (CSF1R (human)): 99%
- residual activity (SIK2 (human)): 95.5%
- residual activity (MST1R (human)): 97.8%
- residual activity (STK3 (human)): 102%
- residual activity (RPS6KA1 KD1 KD2 (human)): 104%
- residual activity (BRSK1 (human)): 90.8%
- residual activity (PRKG2 (human)): 68.7%
- residual activity (MINK1 (human)): 97.5%
- residual activity (TYRO3 (human)): 95.7%
- residual activity (CAMK2B (human)): 98.9%
- residual activity (MAP2K2 (human)): 95.6%
- residual activity (PIM3 (human)): 99.6%
- residual activity (NEK1 (human)): 91.3%
- residual activity (CDK6 CCND3 (human)): 94.6%
- residual activity (IKBKB (human)): 103%
- residual activity (TSSK1B (human)): 97.3%
- residual activity (RPS6KA2 KD1 KD2 (human)): 86.1%
- residual activity (EGFR (human)): 99.6%
- residual activity (MAPK10 (human)): 100%
- residual activity (MAP4K5 (human)): 89.3%
- residual activity (PRKCA (human)): 78.9%
- residual activity (ULK2 (human)): 92%
- residual activity (MAP3K10 (human)): 91.7%
- residual activity (EPHA5 (human)): 94.6%
- residual activity (MATK (human)): 89.5%
- residual activity (RET (human)): 97%
- residual activity [1]: 88.5%
- residual activity (CDK3 CCNE1 (human)): 91.7%
- residual activity (CAMK4 (human)): 99.9%
- residual activity (PIM2 (human)): 105%
- residual activity (TEK (human)): 97.2%
- residual activity (PRKCI (human)): 98.3%
- residual activity (SGK3 (human)): 96%
- residual activity (MAP4K4 (human)): 84.9%
- residual activity (MUSK (human)): 98.2%
- residual activity (FES (human)): 108%
- residual activity (RIPK2 (human)): 105%
- residual activity (GSK3A (human)): 105%
- residual activity (OXSR1 (human)): 94.8%
- residual activity (ITK (human)): 99.2%
- residual activity (MAPKAPK2 (human)): 103%
- residual activity (PASK (human)): 91.1%

SMILES: Nc1ccc2ncnc(NCCc3ccc(Oc4ccccc4)cc3)c2c1
- residual activity (CSF1R (human)): 106%
- residual activity (SIK2 (human)): 97.4%
- residual activity (MST1R (human)): 97.2%
- residual activity (STK3 (human)): 105%
- residual activity (RPS6KA1 KD1 KD2 (human)): 108%
- residual activity (BRSK1 (human)): 101%
- residual activity (PRKG2 (human)): 105%
- residual activity (MINK1 (human)): 95.4%
- residual activity (TYRO3 (human)): 101%
- residual activity (CAMK2B (human)): 95.1%
- residual activity (MAP2K2 (human)): 94.9%
- residual activity (PIM3 (human)): 104%
- residual activity (NEK1 (human)): 102%
- residual activity (CDK6 CCND3 (human)): 100%
- residual activity (IKBKB (human)): 100%
- residual activity (TSSK1B (human)): 100%
- residual activity (RPS6KA2 KD1 KD2 (human)): 100%
- residual activity (EGFR (human)): 112%
- residual activity (MAPK10 (human)): 104%
- residual activity (MAP4K5 (human)): 94.8%
- residual activity (PRKCA (human)): 103%
- residual activity (ULK2 (human)): 103%
- residual activity (MAP3K10 (human)): 91.9%
- residual activity (EPHA5 (human)): 102%
- residual activity (MATK (human)): 89.6%
- residual activity (RET (human)): 101%
- residual activity [1]: 94.6%
- residual activity (CDK3 CCNE1 (human)): 94.8%
- residual activity (CAMK4 (human)): 98.9%
- residual activity (PIM2 (human)): 119%
- residual activity (TEK (human)): 99%
- residual activity (PRKCI (human)): 103%
- residual activity (SGK3 (human)): 106%
- residual activity (MAP4K4 (human)): 99.2%
- residual activity (MUSK (human)): 102%
- residual activity (FES (human)): 99.6%
- residual activity (RIPK2 (human)): 94.6%
- residual activity (GSK3A (human)): 110%
- residual activity (OXSR1 (human)): 101%
- residual activity (ITK (human)): 104%
- residual activity (MAPKAPK2 (human)): 108%
- residual activity (PASK (human)): 103%
